Source: patent publication US9012412B2, “Dual SGLT1/SGLT2 inhibitors” (Janssen Pharmaceutica NV, priority 2013, dated 2015)

Columns and labels:
human SGLT2 = biological target: T1, human SGLT2 (Homo sapiens, UniProt P31639); experiment: Sodium-dependent 14C-methyl-α-D-glucopyranoside uptake in CHO-K1 cells stably expressing human SGLT2; format: cell-based; conditions: for inhibition at 0.1 µM: compound at 0.1 μM; for IC50: 14C-methyl-α-D-glucopyranoside uptake
T1 construct: expressed in transfected cells
T1 sequence (P31639 1-672): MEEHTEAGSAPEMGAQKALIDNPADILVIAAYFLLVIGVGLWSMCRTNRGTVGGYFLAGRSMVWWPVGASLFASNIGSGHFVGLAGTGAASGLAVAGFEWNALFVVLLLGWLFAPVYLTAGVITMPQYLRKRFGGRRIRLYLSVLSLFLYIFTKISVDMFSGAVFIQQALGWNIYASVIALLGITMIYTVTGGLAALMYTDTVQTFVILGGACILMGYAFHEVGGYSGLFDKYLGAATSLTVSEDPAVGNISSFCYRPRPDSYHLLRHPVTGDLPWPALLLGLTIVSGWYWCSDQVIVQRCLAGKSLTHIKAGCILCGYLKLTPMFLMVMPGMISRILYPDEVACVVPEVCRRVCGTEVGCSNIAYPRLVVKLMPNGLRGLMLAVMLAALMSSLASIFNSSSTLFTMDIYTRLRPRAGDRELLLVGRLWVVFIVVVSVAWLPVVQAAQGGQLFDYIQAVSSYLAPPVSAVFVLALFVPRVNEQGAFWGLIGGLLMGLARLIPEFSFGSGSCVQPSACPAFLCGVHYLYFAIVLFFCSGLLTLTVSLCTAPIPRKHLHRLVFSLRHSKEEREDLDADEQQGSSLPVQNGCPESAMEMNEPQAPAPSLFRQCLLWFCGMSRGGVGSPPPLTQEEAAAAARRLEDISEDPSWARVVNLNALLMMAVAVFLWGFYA
Experimental: (§1) SGLT1 and SGLT2 were cloned in form of cDNA from human small intestine (Genbank M24847), and from human kidney (Genbank M95549), respectively. Subsequently, each full cDNA was subcloned into pcDNA with each construct's integrity verified through follow-on sequencing. To generate CHO-K1 cells that stably express human SGLT1 or human SGLT2 CHO-K1 cells were transfected using DMRIE-C reagent (Life Technologies, Gaithersburg, Md.). Transfected cells were then selected in the presence of 500 μg/ml of the antibiotic G418 (Gibco-BRL, Grand Island, N.Y.). Individual clones were then characterized using the following cell-based assay for sodium-dependent glucose transport.
(§2) First, cell lines stably expressing human SGLT1 or SGLT2 were seeded at a density of 65,000 cells per well per 200 μl cell culture medium with 10 mM of NaButyrate (Aldrich Catalog No. 30341-0) in a 96-well flat bottom plate (COSTAR, Catalog No. 3903). For human SGLT1 or SGLT2 expressing CHO-K1 cells the culture medium comprised Ham's F-12 (Invitrogen Catalog No. 31765), Fetal Bovine Serum (Invitrogen Catalog No. 16000), G418 (Geneticin, Cellgro Catalog No. 30234-CI), Phlorizidin (Sigma Catalog No. P3449), DPBS (Cellgro Catalog No. 21030-CV), ^14C-methyl-α-D-glucopyranoside (Amersham Catalog No. CFB 76), and Methyl-α-D-glucopyranoside (Sigma Catalog No. M-9376).
(§3) The cells were allowed to incubate for 24 hours. Subsequently, the medium was aspirated from the plates and the cells were washed one time with 150 μl assay buffer and incubate 15 min with another 150 μl assay buffer which comprised 50 mM HEPES pH 7.4, 20 mM Tris Base, 5 mM KCl, 1 mM MgCl2, 1 mM CaCl2, and 137 mM NaCl. After removing the wash buffer, 40 μl assay buffer and 10 μl compound solution was added to each well, which was again allowed to incubate for 10 min.
(§4) Following the 10 min incubation, 10 μl of serial diluted Methyl-α-D-glucopyranoside (Sigma Catalog No. M-9376) containing 0.07 μCi ^14C-methyl-α-D-glucopyranoside (Amersham Catalog No. CFB 76) was added to the appropriate well and allowed to incubate for another 2 hours. ^14C-methyl-α-D-glucopyranoside (Sigma Catalog No. M-9376, St. Louis, Mo.) is a non-metabolizable glucose analog specific for sodium-dependent glucose transporters as previously described by H. Peng and J. E. Lever in “Post-transcriptional regulation of Na+/glucose cotransporter (SGLT1) gene expression in LLC-PK1 cells,” J. Biol. Chem. 270, 20536-42 (1995).
(§5) Next, the plates were twice washed with 150 μl of ice-cold DPBS (Cellgro Catalog No. 21030) that was then completely removed from the plates before adding 50 μl of MicroScint™-20 (Packard Catalog No. 6013621) to each well for a 20 min or longer incubation time.
(§6) Sodium-dependent ^14C-methyl-α-D-glucopyranoside uptake was quantified by measuring radioactivity. Plates were counted in a TopCount (Packard, Meriden, Conn.). Results are reported as the %-inhibition or IC50 value from a representative experiment. Variability for the functional assay was typically within 20%.

human SGLT1 = biological target: T2, human SGLT1 (Homo sapiens, UniProt P13866); experiment: Sodium-dependent 14C-methyl-α-D-glucopyranoside uptake in CHO-K1 cells stably expressing human SGLT1; format: cell-based; conditions: for inhibition at 0.1 µM: compound at 0.1 μM; for IC50: 14C-methyl-α-D-glucopyranoside uptake
T2 construct: expressed in transfected cells
T2 sequence (P13866 1-664): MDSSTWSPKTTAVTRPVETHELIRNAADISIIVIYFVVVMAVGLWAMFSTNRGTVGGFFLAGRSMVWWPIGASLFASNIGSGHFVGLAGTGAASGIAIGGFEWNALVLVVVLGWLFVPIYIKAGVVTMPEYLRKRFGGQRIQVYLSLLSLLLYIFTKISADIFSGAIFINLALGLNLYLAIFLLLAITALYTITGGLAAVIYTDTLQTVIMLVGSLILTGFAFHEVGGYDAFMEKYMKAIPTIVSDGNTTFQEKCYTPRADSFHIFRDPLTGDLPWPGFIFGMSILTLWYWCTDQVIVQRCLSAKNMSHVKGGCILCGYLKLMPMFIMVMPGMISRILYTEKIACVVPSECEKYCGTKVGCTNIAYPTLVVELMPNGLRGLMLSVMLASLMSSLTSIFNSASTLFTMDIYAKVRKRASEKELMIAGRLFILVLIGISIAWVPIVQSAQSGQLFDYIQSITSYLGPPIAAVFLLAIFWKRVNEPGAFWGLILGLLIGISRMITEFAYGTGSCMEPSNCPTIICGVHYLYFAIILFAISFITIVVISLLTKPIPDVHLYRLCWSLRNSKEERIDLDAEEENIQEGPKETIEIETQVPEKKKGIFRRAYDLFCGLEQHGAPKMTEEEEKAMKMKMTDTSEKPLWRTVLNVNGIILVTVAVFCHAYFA
Experimental: as §1, §2, §3, §4, §5, §6

| SMILES | inhibition at 0.1 µM (human SGLT2) [%] | inhibition at 0.1 µM (human SGLT1) [%] | IC50 (human SGLT2) [nM] | IC50 (human SGLT1) [nM] |
| --- | --- | --- | --- | --- |
| Cc1cc(Br)c([C@@H]2O[C@H](CO)C[C@H](O)[C@H]2O)cc1Cc1cc2ccccc2s1 [Cpd 25, (2S,3R,4S,6S)-2-(5-(benzo[b]thiophen-2-ylmethyl)-2-bromo-4-methylphenyl)-6-(hydroxymethyl)tetrahydro-2H-pyran-3,4-diol] | 47 | 26 |  |  |
| COc1cc(O)c([C@@H]2O[C@H](CO)C[C@H](O)[C@H]2O)cc1Cc1cc2ccccc2s1 [Cpd 2, (2S,3R,4S,6S)-2-(5-(benzo[b]thiophen-2-ylmethyl)-2-hydroxy-4-methoxyphenyl)-6-(hydroxymethyl)tetrahydro-2H-pyran-3,4-diol] |  |  | 114 | 155 |
| OC[C@@H]1C[C@H](O)[C@@H](O)[C@H](c2cc(Cc3cc4ccccc4s3)c(F)cc2O)O1 [Cpd 4, (2S,3R,4S,6S)-2-(5-(benzo[b]thiophen-2-ylmethyl)-4-fluoro-2-hydroxyphenyl)-6-(hydroxymethyl)-tetrahydro-2H-pyran-3,4-diol] |  |  | 128 | 893 |
| Cc1cc(-c2ccc[nH]2)c([C@@H]2O[C@H](CO)C[C@H](O)[C@H]2O)cc1Cc1cc2ccccc2s1 [Cpd 26, (2S,3R,4S,6S)-2-(5-(benzo[b]thiophen-2-ylmethyl)-4-methyl-2-(1H-pyrrol-2-yl)phenyl)-6-(hydroxymethyl)tetrahydro-2H-pyran-3,4-diol] | 57 | 33 |  |  |
| Cc1cc(O)c([C@@H]2O[C@H](CO)C[C@H](O)[C@H]2O)cc1Cc1cc2cc(Cl)ccc2s1 [Cpd 20, (2S,3R,4S,6S)-2-(5-((5-chlorobenzo[b]thiophen-2-yl)methyl)-2-hydroxy-4-methylphenyl)-6-(hydroxymethyl)tetrahydro-2H-pyran-3,4-diol] | 84 | 20 |  |  |
